Where two headings read alike, the source gives them in different places.
What was measured:
[1] = tested on: EZH2^Y666N expressing G401 rhabdoid tumor cells; test: Cell viability (CellTiter-Glo), G401 clones expressing doxycycline-inducible EZH2^Y666N; assay type: cell-based; conditions: 10 μM drug, 14 days
Experimental: (§1) Drug and media were replaced on Days 4, 7, and 11. CellTiter-Glo assays were performed on Day 14, with luminescence readings taken using an automated fluorescence plate reader (Tecan). CellTiter-Glo reagent was freshly reconstituted on the day of measurement and added in a 1:1 proportion to cell media. […] Cell line doubling time was determined by measuring cell viability every 24 hours over the course of 4 days, and fitting the cell viability to a two-parameter exponential curve. […] After the addition of cells, drugs were added using a pin tool (stainless steel pins with 50 nL slots, V&P Scientific) mounted onto a liquid handling robot (CyBio Well vario, Analytik Jena). For analysis of synergy, we used the synergyFinder package (2). Outliers due to pinning errors were excluded after manual examination.

CHK1 = molecular target: T1, CHK1 (Homo sapiens, UniProt O14757); test: Western blot of CHK1 autophosphorylation at S296; assay type: cell-based; conditions: SRA737 3 μM, 2 days
T1 construct: endogenous in cells; host or cells: G401 rhabdoid tumor cells
T1 sequence (O14757 1-476): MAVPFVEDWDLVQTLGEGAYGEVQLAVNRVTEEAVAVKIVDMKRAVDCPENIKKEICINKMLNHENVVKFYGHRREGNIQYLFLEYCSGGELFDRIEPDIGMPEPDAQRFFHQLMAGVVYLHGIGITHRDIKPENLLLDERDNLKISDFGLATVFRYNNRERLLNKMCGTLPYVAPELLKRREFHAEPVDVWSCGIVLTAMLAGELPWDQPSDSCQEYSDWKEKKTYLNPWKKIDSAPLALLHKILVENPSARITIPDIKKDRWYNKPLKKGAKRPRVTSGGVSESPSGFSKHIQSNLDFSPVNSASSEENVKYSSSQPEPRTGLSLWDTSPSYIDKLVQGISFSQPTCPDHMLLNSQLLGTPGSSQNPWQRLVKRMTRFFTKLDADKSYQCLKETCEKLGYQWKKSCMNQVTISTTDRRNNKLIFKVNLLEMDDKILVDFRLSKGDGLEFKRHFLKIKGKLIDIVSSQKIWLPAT
Experimental: To assess protein expression by Western immunoblotting, pellets of 1 million cells were prepared and washed once in cold PBS. Cells were resuspended in 100-130 μL of RIPA lysis buffer (50 mM Tris-HCl, pH 8.0, 150 mM NaCl, 1.0% NP-40, 0.5% sodium deoxycholate, 0.1% sodium dodecyl sulfate) and incubated on ice for 10 minutes. Cell suspensions were then disrupted using a Covaris S220 adaptive focused sonicator for 5 minutes (peak incident power: 35W, duty factor: 10%, 200 cycles/burst) at 4° C. Lysates were cleared by centrifugation at 18,000 g for 15 min at 4° C. Protein concentration was assayed using the DC Protein Assay (Bio-Rad) and 15-35 μg whole cell extract was used per sample. Samples were boiled at 95° C. in Laemmli buffer (Bio-Rad) with 40 mM DTT and resolved using sodium dodecyl sulfate-polyacrylamide gel electrophoresis. Proteins were transferred to Immobilon FL PVDF membranes (Millipore), and membranes were blocked using Intercept Blocking buffer (Li-Cor). […] Blotted membranes were visualized using goat secondary antibodies conjugated to IRDye 680RD or IRDye 800CW (Li-Cor, 926-68071 and 926-32210) at 1:15,000 and the Odyssey CLx fluorescence scanner, according to manufacturer's instructions (Li-Cor). […]

RB1^WT G401 cells [2] = test: Flow cytometry cell cycle analysis (EdU/propidium iodide), G401 RB1^WT; assay type: cell-based; conditions: 1 μM TAZ, 11 days
Experimental: (§2) On Day 11, cells were pulsed with EdU for 1 hour. Cells were then harvested and processed for flow cytometry using the manufacturer's protocol (Click-iT, Invitrogen). Briefly, cells were washed with PBS with 1% BSA, permeabilized, and incubated with AlexaFluor647 for 30 minutes. DNA content was measured using propidium iodide (0.05 μg/μL). Cells were analyzed on a CytoFLEX LX (Beckman Coulter).

RB1^del G401 cells [3] = test: Flow cytometry cell cycle analysis (EdU/propidium iodide), G401 RB1^del clones; assay type: cell-based; conditions: 1 μM TAZ, 11 days
Experimental: as §2

G401 cells = conditions: single drug, 7 days; DMSO 0.061
Experimental: Immunofluorescence for γH2AX was performed on cells plated on Millicell EZ Slide glass slides (EMD Millipore), coated for 45 minutes with bovine plasma fibronectin (Millipore Sigma). After drug treatment, cells were washed once with PBS and fixed in 4% formaldehyde for 10 minutes at room temperature. Slides were then washed three times in PBS for 5 minutes, permeabilized for 15 minutes in 0.3% Triton X-100, washed again in PBS three times, and blocked with 5% goat serum (Millipore Sigma, G9023) in PBS for 1 hour at room temperature. Slides were incubated with mouse anti-γH2A.X primary antibody (Sigma-Aldrich, 05-636) at 1:500 in blocking buffer for 1 hour, washed three times in PBS, and incubated with goat anti-mouse secondary antibody conjugated to AlexaFluor555 (Invitrogen, A-21422) at 1:1,000. Cells were then counterstained with DAPI at 1:1,000 for 10 minutes and treated with ProLong Diamond Antifade Mountant with DAPI (Invitrogen, P36962) for 48 hours.
Images were acquired on a Leica SP5 confocal microscope in the upright configuration at 63× magnification. Images were then processed using a custom pipeline in CellProfiler (6). Per-cell integrated γH2A.X intensity was normalized against per-cell integrated DAPI intensity.

MRT and ES cell lines = test: TAZ dose-response curves in a panel of MRT and ES cell lines; assay type: cell-based; conditions: 13 days, AUC integrated from 40 nM to 50 μM
Experimental: as §1

RB1^del G401 cells [4] = test: Cell viability (CellTiter-Glo), G401 RB1^del clones E1 and F2; assay type: cell-based; conditions: for overcoming TAZ resistance in RB1^del G401 cells: seleciclib, alisertib 9 days, barasertib 6 days; for EC50: Homo sapiens, G-401, 144 h, barasertib for 6 days, read-out: half-maximal effective concentration
Experimental: G401 cells with RB1 mutations were engineered by Synthego. […] Ribonucleprotein containing spCas9 and sgRNA was transfected into G401 cells by electroporation. […] The cells were then single-cell cloned and re-verified by Sanger sequencing.
as §1, with “CellTiter-Glo assays were performed on Day 14, with luminescence readings taken using an automated fluorescence plate reader (Tecan).” left out

RB1^WT G401 cells [5] = test: Cell viability (CellTiter-Glo) dose response, G401 RB1^WT; assay type: cell-based; conditions: Homo sapiens, G-401, 144 h, barasertib for 6 days, read-out: half-maximal effective concentration
Experimental: as §1

Cc1ncccc1-c1cnc(NCc2c(F)ccc3c2CCO3)n2cnnc12 [MAK683]
cell viability of EZH2^Y666N clones versus wild-type EZH2 [1]: overcomes EZH2^Y666N-mediated resistance

N#Cc1cnc(Nc2cc(NC[C@H]3CNCCO3)c(C(F)(F)F)cn2)cn1 [SRA737]
CHK1 auto-phosphorylation (CHK1): effective suppression

CCN(c1cc(-c2ccc(CN3CCOCC3)cc2)cc(C(=O)NCc2c(C)cc(C)[nH]c2=O)c1C)C1CCOCC1 [TAZ, Tazemetostat]
proportion of cells in G1 phase upon TAZ treatment (RB1^WT G401 cells [2]): 50%
proportion of cells in G1 phase upon TAZ treatment (RB1^del G401 cells [3]; RB1^del E1 clone): 31%
proportion of cells in G1 phase upon TAZ treatment (RB1^del G401 cells [3]; RB1^del F2 clone): 28%
nuclear γH2AX fluorescence, median normalized level (G401 cells): 0.12
area under the curve (AUC) of TAZ dose responses (MRT and ES cell lines; resistant ES1, VAESBJ, ES2, EPI544, MP-MRT-AN cell lines): ≤ 0.3
area under the curve (AUC) of TAZ dose responses (MRT and ES cell lines; sensitive G401, KP-MRT-NS, TTC642, A204, TM8716, KP-MRT-RY cell lines): > 0.3

COc1cc(Nc2ncc3c(n2)-c2ccc(Cl)cc2C(c2c(F)cccc2OC)=NC3)ccc1C(=O)O [alisertib]
overcoming TAZ resistance in RB1^del G401 cells (RB1^del G401 cells [4]): able to overcome TAZ resistance

CCN(CCCOc1ccc2c(Nc3cc(CC(=O)Nc4cccc(F)c4)n[nH]3)ncnc2c1)CCOP(=O)(O)O [barasertib]
EC50 (RB1^WT G401 cells [5]): 6.5 ± 0.5 nM
EC50 (RB1^del G401 cells [4]; G401 RB1^del E1 clone): 5.5 ± 0.6 nM
EC50 (RB1^del G401 cells [4]; G401 RB1^del F2 clone): 5.9 ± 0.9 nM

CC[C@H](CO)Nc1nc(NCc2ccccc2)c2ncn(C(C)C)c2n1 [seleciclib]
overcoming TAZ resistance in RB1^del G401 cells (RB1^del G401 cells [4]): able to overcome TAZ resistance

Cc1cc(C)c(CNC(=O)c2cc(Cl)c3c(c2C)O[C@@](C)([C@H]2CC[C@H](N(C)C)CC2)O3)c(=O)[nH]1 [valemetostat]
cell viability of EZH2^Y666N clones versus wild-type EZH2 [1]: confers resistance
